From article PMC4043872 (Chembiochem : a European journal of chemical biology, 2014)

What was measured:
[1] = molecular target: T1, ALDH1A1 (Homo sapiens, UniProt P00352); assay: ALDH1A1 inhibition, propionaldehyde as substrate; format: biochemical; details: up to 250 μM
T1 sequence (P00352 1-501): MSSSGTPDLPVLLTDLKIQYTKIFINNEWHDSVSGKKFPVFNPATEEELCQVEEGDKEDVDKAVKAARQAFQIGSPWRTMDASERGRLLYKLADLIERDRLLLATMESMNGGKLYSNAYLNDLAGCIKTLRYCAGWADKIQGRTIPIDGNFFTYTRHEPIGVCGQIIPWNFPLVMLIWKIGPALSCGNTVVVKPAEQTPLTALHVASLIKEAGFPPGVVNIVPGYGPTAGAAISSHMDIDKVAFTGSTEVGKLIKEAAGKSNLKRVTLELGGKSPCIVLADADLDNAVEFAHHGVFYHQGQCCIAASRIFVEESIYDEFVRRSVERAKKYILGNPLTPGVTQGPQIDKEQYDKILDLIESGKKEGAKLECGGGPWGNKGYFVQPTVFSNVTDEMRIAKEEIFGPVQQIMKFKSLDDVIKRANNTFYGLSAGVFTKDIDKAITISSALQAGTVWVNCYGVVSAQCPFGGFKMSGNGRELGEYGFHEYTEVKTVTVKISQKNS

[2] = test system: CCD-13Lu cells; assay: Colorimetric MTT assay for mafosfamide sensitivity, CCD-13Lu; details: 19 hours, Figure 4C
[3] = molecular target: T2, ALDH3A1 activity in A549 cell lysates (Homo sapiens, UniProt P30838); assay: Cell lysate ALDH3A1 activity in presence and absence of CB29, A549; format: biochemical; details: 50 μM CB29, […] NADP+, 1 mM benzaldehyde
T2 sequence (P30838 1-453): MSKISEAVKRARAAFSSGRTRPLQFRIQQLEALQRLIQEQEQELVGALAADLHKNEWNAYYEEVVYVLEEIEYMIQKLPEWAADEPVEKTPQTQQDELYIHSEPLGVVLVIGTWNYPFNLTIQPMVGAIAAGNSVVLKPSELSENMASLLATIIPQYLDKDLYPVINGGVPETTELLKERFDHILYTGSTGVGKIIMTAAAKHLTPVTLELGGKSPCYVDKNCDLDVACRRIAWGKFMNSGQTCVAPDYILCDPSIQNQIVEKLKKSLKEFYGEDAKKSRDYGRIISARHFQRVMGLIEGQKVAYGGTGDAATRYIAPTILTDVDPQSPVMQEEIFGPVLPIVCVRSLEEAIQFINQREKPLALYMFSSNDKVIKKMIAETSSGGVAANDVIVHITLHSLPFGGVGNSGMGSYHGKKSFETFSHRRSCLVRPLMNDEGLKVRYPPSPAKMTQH

[4] = molecular target: T3, ALDH3A1 (Homo sapiens, UniProt P30838); assay: Steady-state kinetics, mode of inhibition of ALDH3A1; format: biochemical
T3 sequence (P30838 1-453): T2 sequence (P30838 1-453)

[5] = molecular target: T3, ALDH3A1; assay: Recombinant ALDH3A1 activity in presence and absence of CB29; format: biochemical; details: 50 μM CB29, […] NADP+, 1 mM benzaldehyde
[6] = molecular target: T4, ALDH3A1 activity in SF767 cell lysates (Homo sapiens, UniProt P30838); assay: Cell lysate ALDH3A1 activity in presence and absence of CB29, SF767; format: biochemical; details: 50 μM CB29, […] NADP+, 1 mM benzaldehyde
T4 sequence (P30838 1-453): T2 sequence (P30838 1-453)

[7] = molecular target: T5, ALDH1B1 (Homo sapiens, UniProt P30837); assay: ALDH1B1 activity assay, propionaldehyde/NAD+; format: biochemical; details: up to 250 μM
T5 sequence (P30837 18-517): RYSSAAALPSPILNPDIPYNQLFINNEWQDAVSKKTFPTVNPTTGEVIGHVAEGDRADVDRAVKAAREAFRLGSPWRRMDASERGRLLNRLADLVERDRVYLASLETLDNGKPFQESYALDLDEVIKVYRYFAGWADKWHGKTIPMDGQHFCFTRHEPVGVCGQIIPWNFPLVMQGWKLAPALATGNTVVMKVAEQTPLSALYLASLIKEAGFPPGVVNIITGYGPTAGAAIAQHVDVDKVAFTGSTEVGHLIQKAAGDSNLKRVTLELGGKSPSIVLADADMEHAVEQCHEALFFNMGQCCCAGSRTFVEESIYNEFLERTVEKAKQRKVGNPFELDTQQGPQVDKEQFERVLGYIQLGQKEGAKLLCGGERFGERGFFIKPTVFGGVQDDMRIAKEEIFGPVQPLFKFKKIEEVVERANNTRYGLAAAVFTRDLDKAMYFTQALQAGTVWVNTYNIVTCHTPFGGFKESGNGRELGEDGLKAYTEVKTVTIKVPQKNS

[8] = molecular target: T6, ALDH1A3 (Homo sapiens, UniProt P47895); assay: ALDH1A3 activity assay, propionaldehyde/NAD+; format: biochemical; details: up to 250 μM
T6 sequence (P47895 1-512): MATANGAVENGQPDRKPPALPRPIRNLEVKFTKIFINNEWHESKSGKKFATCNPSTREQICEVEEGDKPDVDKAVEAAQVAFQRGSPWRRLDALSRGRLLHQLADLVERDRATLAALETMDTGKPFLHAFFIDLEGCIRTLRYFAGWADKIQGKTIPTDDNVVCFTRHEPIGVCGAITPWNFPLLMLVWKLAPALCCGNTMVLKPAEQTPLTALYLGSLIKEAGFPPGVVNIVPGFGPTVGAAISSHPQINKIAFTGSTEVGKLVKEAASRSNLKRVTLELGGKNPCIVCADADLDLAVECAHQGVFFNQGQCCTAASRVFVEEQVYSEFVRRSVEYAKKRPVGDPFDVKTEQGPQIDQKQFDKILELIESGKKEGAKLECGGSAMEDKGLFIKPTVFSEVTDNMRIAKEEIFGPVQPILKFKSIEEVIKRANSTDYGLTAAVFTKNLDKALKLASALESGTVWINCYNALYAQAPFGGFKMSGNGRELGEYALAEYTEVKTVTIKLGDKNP

[9] = molecular target: T7, ALDH1A2 (Homo sapiens, UniProt O94788); assay: ALDH1A2 activity assay, propionaldehyde/NAD+; format: biochemical; details: up to 250 μM
T7 sequence (O94788 1-518): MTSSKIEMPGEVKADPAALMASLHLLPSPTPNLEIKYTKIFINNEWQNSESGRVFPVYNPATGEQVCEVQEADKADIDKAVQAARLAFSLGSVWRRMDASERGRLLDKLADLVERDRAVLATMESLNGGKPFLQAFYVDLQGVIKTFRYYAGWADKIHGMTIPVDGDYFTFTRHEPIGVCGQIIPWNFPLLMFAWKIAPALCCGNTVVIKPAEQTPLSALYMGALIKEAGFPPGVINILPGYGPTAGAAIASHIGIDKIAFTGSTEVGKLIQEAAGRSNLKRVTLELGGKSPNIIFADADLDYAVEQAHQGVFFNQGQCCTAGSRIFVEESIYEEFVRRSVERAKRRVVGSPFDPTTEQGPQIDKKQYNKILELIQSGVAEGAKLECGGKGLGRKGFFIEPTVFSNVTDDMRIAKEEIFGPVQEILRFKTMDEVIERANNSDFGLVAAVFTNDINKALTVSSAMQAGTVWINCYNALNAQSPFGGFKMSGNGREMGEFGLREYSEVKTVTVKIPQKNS

[10] = Formation of homogeneous solution; format: physicochemical; details: in the presence of […] DMSO
[11] = molecular target: T8, ALDH2 (Homo sapiens, UniProt P05091); assay: ALDH2 inhibition, propionaldehyde as substrate; format: biochemical; details: up to 250 μM
T8 sequence (P05091 18-517): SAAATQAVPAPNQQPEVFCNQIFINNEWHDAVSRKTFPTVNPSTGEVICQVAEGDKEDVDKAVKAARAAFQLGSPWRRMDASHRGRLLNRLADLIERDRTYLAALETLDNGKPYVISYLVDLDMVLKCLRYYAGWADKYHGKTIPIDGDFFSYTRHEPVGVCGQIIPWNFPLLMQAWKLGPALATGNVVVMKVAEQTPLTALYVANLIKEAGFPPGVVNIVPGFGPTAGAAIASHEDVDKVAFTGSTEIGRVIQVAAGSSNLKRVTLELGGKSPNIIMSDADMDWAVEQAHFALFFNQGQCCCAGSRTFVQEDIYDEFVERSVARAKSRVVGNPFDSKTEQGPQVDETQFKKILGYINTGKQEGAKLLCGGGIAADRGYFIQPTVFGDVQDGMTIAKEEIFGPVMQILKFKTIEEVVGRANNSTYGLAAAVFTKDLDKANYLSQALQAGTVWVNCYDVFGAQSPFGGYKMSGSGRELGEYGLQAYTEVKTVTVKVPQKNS

[12] = test system: SF767 cells
[13] = test system: A549 cells; details: 50 μM inhibitor alone, 19 hours, MTT, Figure 4A grey bars

Compound: CC(=O)Nc1ccc(Nc2ccc(S(C)(=O)=O)cc2[N+](=O)[O-])cc1 [CB29, N-[4-{(4-(methylsulfonyl)-2-nitrophenyl)-4-amino}-phenyl]-acetamide]
- inhibition toward ALDH1A1 [1]: < 5%
- enhancement of mafosfamide sensitivity, CCD-13Lu (in words) ([2]; 50 μM inhibitor + 40 μM mafosfamide): did not show mafosfamide chemosensitivity
- cytotoxicity / proliferation with inhibitor alone, CCD-13Lu (in words) ([2]; 50 μM inhibitor): unaffected
- decrease of ALDH3A1 activity in A549 cell lysate [3]: > 95%
- Ki ([4]; competitive versus varied benzaldehyde, fixed NADP+ […], 10 nM ALDH3A1): 4 µM
- mode of inhibition ([4]; with respect to benzaldehyde): competitive
- decrease of activity of recombinant ALDH3A1 [5]: ~ 97%
- decrease of ALDH3A1 activity in SF767 cell lysate [6]: > 90%
- inhibition toward ALDH1B1 [7]: < 5%
- inhibition toward ALDH1A3 [8]: < 5%
- inhibition toward ALDH1A2 [9]: < 5%
- homogeneous solution formed [10]: ≥ 100 µM
- inhibition toward ALDH2 [11]: < 5%
- increase in mafosfamide chemosensitivity, SF767 ([12]; 50 μM inhibitor + […] mafosfamide, 19 hours, MTT, p<0.005): ~2 fold
- effect on cell proliferation as single agent, SF767 (in words) ([12]; 50 μM inhibitor alone, 19 hours, MTT, Figure 4B grey bars): little effect
- decrease of ED50 value of mafosfamide in the presence of inhibitor, SF767 ([12]; inhibitor 50 μM, Figure 5B): 1.6 fold
- ED50 of mafosfamide in the presence of inhibitor, SF767 ([12]; inhibitor 50 μM, mafosfamide 0-250 μM, MTT, Figure 5B): 92 ± 4 µM
- effect on cell proliferation as single agent, A549 (in words) [13]: little effect
